The values below come from PMC11871066, “Structure-based discovery of hydrocarbon-stapled paxillin peptides that block FAK scaffolding in cancer” (Nature Communications, 2025).

The nature of one data set: in vivo. The note with it: female, Balb/cJ, mouse, ip.
Data set [1] can be described thus: In vivo pharmacokinetics, single i.p. administration. The note with it: Cmax vs IC50 0.8 µM.
Description: (§4) Cell permeability of peptide drugs was determined by fluorescence measurement of TAMRA-labeled peptides in 96-well plates and ClarioStar Plus plate reader using BMG ClarioStar MARS software (version 4.20). […] Percent uptake was calculated as background-subtracted fluorescence absorbed by cells/fluorescence of peptide in media-only wells, then made relative to TAMRA-Alkyne. Three biological replicates (n = 3) were performed per cell line per treatment group. Peptide proteolysis was measured using immobilized Trypsin-agarose resin (Thermo Fisher) and quantification by LC-MS. […] In vivo pharmacokinetics were performed by the UACC Analytical Chemistry Shared Resource. […] The mice were fed NIH-31 irradiated pellets (Tekland Premier, Madison, Wisconsin), and reverse osmosis water was freely available. […] The average plasma concentration versus time data were analyzed using PKSolver (version 2.0) by a noncompartmental approach.
The next data set in a line: in vitro. The note with it: plasma.
For data set [2], the system named is trypsin. Nature of the data set: in vitro. The following applies: isolated enzyme trypsin.
Description: as §4
In data set [3] the target is 97 kinases (kinase named in endpoint) (Homo sapiens, UniProt P43403). Kind of data set: Eurofins KINOMEscan profiling, 97 kinases. The following applies: read-out: % Ctrl, ZAP70.
Data set [4] in a line: Liver microsomal stability. The note with it: human liver microsomes.
Data set [5] has as its system FAK/paxillin focal adhesions in SK-MEL-147 cells. Kind of data set: cells. The note with it: 48 h. It counts as cell-based, human. The method, then: SK-MEL-147 cells were collected and seeded into the inner 60 wells of 96-well, black-walled plates (Agilent, 204626-100) at 1000 cells per well in 100 uL of complete DMEM overnight in a 37 °C incubator with 5% CO2. The next day, the serum-containing media was removed from each well and cells were washed with PBS before treating the cells in serum-free DMEM and 0.5% DMSO for 48 h. After treatment, cells were pre-fixed with 4% paraformaldehyde diluted in 1x PBS being added directly to the culture medium for 2 min. Pre-fixation media was then removed, and 4% paraformaldehyde diluted in 1X PBS was added to each well for 3 min at room temperature. Fixative was then removed and neutralized twice with 100 mM Tris Buffered Saline in MilliQ water and then washed once with 0.1% Tween-20 in PBS. Cells were permeabilized with 0.5% Triton-X 100 in PBS for 5 min at room temperature, then the permeabilization buffer was removed, and cells were washed twice with 0.1% Tween-20 in PBS. Cells were then blocked with 10% Goat Serum in PBS for 1 h at room temperature. […] Antibody stain was then removed, and cells were washed twice with 0.1% Tween-20 in PBS. […] Cells were then washed twice with 0.1% Tween-20 in PBS and DAPI stain (Sigma-Aldrich, D9542-5MG, 1 mg/mL) diluted 1:40,000 in PBS in the dark for 5 min at room temperature. DAPI stain was then removed, and cells were washed twice with 0.1% Tween-20 in PBS, then twice with PBS for 5 min per wash on an orbital shaker. Plates were then imaged on the BioTek Cytation C10 Confocal Imaging Reader. Three fields of view were taken per well per run and analyzed in the accompanying Agilent BioTek Gen5 Software (version 3.16). The following software parameters were used to quantify FAK-containing, paxillin-containing, and FAK/paxillin-containing focal adhesions: area (0.25–33); circularity (<0.602); FAK signal to noise ratio (>2.55), FAK integrated density (SKMEL147 > 4200; WM88 >9400), paxillin signal to noise ratio (>4.5), paxillin integrated density (>8000), presence of F-actin (phalloidin) staining; and limited proximity to DAPI staining (integrated density <4000).

The subject of data set [6] is SK-MEL-147 cells. Nature of the data set: LDH release assay. The note with it: 100 μM to 200 nM, 45 min, n = 3. Type of data set: cell-based, human. The method, then:
(§1) Non-specific membrane disruption was assessed quantitatively by measuring the lactate dehydrogenase (LDH) activity in the medium using the cytoscan-LDH cytotoxicity assay kit (G-Biosciences Inc., St Louis, Mo, USA). SK-MEL-147 and WM88 human melanoma cells were plated in 96-well white-walled plates at 5k cells/well in 90 uL of serum complete DMEM and returned to a 37 °C incubator with 5% CO2 overnight. The cells were then treated in triplicate with 2012, 2020 (negative control), and Gambogic Acid (positive control) at titrating concentrations ranging from 100 μM to 200 nM and allowed to incubate for 45 min in a 37 °C incubator with 5% CO2. About 50 µl of supernatant was transferred from each well to a new flat-bottom 96-well white-walled plate and mixed with 50 µl of recombinant substrate mixture. This reaction was allowed to occur at room temperature for 30 min protected from light. Then, 50 µl of stop solution was added to terminate the reaction. […] Results were reported as 490 nm values […], averaged, three biological replicates were repeated per cell line, and graphs were generated using GraphPad Prism (version 10.3.1), reporting mean LDH activity ± SD.
(§2) LDH release assay preformed in human melanoma
(§3) Acid (pos. control) at titrating concentrations ranging from 100 μ M to 200 nM for 45 minutes. […]

Another data set relates to WM88 cells. Kind of data set: LDH release assay. Type of data set: cell-based, human. The following applies: 100 μM to 200 nM, 45 min, n = 3. The protocol:
as §1, §2, §3

Data set [7] has as its system trypsin. Kind of data set: Trypsin proteolytic resistance assay. The note with it: immobilized trypsin-agarose resin.
Description: as §4
For data set [8], the system named is SK-MEL-147 cells. Nature of the data set: Cellular uptake of TAMRA-labeled peptides. The note with it: TAMRA-tagged, cell line not given. It counts as in vitro ADME, human.
The next data set relates to kinases. The note with it: 1 µM, ref Cromm et al, 2018; cited from earlier work. The protocol: page 11: Comment 5: Reviewer Comment: “Line 299: “indicating potential [defactinib] toxicity beyond the 2.5 μM”. […] The high non- selectivity of defactinib at low micromolar doses indicates the potential of off-target effects and toxicity beyond 2.5 µM.
The subject of data set [9] is 97 kinases (kinase named in endpoint). Nature of the data set: Eurofins KINOMEscan profiling, 97 kinases. The note with it: 1 µM.

Like-named read-outs stand apart in the source and are kept apart here. Bridge positions count the residues as written; N and C are the ends. Square brackets hold non-standard residues; d marks the D form. Peptide text beside a SMILES is read from it. * marks the point of attachment. Myristoyl = CCCCCCCCCCCCCC(=O)*; R8 = C=CCCCCCC[C@@](C)(N)C(=O)O; S5 = C=CCCC[C@](C)(N)C(=O)O Some results are limits rather than exact numbers.

97 kinases (kinase named in endpoint) (Homo sapiens, UniProt P43403), sequence (P43403 whole entry): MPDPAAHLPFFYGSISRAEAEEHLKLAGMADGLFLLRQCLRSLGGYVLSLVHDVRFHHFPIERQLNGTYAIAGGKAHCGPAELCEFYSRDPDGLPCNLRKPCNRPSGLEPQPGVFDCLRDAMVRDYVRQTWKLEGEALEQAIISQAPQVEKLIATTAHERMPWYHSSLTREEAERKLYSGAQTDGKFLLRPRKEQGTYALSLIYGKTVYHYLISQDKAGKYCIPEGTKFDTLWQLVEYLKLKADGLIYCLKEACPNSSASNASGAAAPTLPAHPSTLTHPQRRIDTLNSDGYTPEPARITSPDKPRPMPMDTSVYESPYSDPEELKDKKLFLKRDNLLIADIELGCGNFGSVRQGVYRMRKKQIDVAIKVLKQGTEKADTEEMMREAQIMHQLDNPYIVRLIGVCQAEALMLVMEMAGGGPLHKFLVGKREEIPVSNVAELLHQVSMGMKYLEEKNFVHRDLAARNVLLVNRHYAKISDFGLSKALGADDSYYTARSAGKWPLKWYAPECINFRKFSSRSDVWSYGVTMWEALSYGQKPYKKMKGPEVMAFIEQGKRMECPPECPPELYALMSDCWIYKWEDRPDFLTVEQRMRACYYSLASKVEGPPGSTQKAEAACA

Take `CCCCCCCCCCCCCC(=O)N[C@@H](CC(N)=O)C(=O)N[C@@H](CC(C)C)C(=O)N[C@]1(C)CCCCCCC=CCCC[C@@](C)(C(=O)N[C@@H](CCC(=O)O)C(=O)N[C@@H](CC(C)C)C(=O)N[C@@H](CC(N)=O)C(N)=O)NC(=O)[C@H](CC(C)C)NC(=O)[C@H](CC(C)C)NC(=O)[C@H](CCCNC(=N)N)NC(=O)[C@H](CC(=O)O)NC(=O)[C@H](CC(C)C)NC(=O)[C@H](CCC(=O)O)NC1=O` [compound 2012]: in the data set “in vivo”, the concentration peaked (Cmax) at 89.4 µg/mL and the half-life is 16.5 h. Also, in “in vivo” (2012 concentration), the level at 0.5 h is 11.4 µg/mL. Besides, the “excess of plasma concentration over focal adhesion IC50” value in [1] is recorded as 60 fold. This molecule also displayed a fraction unbound in the data set “in vitro” of under 0.01. In addition, in the data set on trypsin [2], the fraction remaining at 0.25 h, 100 µM amounted to 91%; the amount remaining at 0.5 h, 100 µM is 108%; the share remaining at 1 h, 100 µM was 102%; the amount remaining at 2 h, 100 µM worked out at 85%. Besides, in the data set on trypsin [2], the amount remaining at 3 h, 100 µM was found to be 104%; the share remaining at 4 h, 100 µM turned out to be 91%; the share remaining at 6 h, 100 µM amounted to 93%; the amount remaining at 8 h, 100 µM was 111%. In the data set with trypsin [2], the amount remaining at 24 h, 100 µM was found to be 97% and the amount remaining at 48 h, 100 µM was determined as 89%. Moreover, in data set [3], the remaining binding at 1 µM is 96%. Moreover, the “remaining in liver microsomes” value in data set [4] (0 min, Rep1) turned out to be 98. Further, the “remaining in liver microsomes” value in data set [4] (0 min, Rep2) stood at 102. Further, the “remaining in liver microsomes” value in data set [4] (5 min, Rep1) came to 98. The “remaining in liver microsomes” value in [4] (5 min, Rep2) came to 94. For the same molecule, the “remaining in liver microsomes” value in data set [4] (15 min, Rep1) turned out to be 100. Further, in data set [4] (15 min, Rep2), the “remaining in liver microsomes” value is 98. For the same molecule, the “remaining in liver microsomes” value in [4] (30 min, Rep1) was determined as 100. For the same molecule, the “remaining in liver microsomes” value in data set [4] (30 min, Rep2) is 101. Also, the “remaining in liver microsomes” value in data set [4] (60 min, Rep1) was determined as 97. Also, the “remaining in liver microsomes” value in data set [4] (60 min, Rep2) amounted to 94.
In the case of `CCCCCCCCCCCCCC(=O)N[C@@H](CC(N)=O)C(=O)N[C@@H](CC(C)C)C(=O)N[C@]1(C)CCCCCCC=CCCC[C@@](C)(C(=O)N[C@@H](CCC(=O)O)C(=O)N[C@@H](CCC(=O)O)C(=O)N[C@@H](CC(N)=O)C(N)=O)NC(=O)[C@H](CC(C)C)NC(=O)[C@H](CC(C)C)NC(=O)[C@H](CCCNC(=N)N)NC(=O)[C@H](CC(=O)O)NC(=O)[C@H](CCC(=O)O)NC(=O)[C@H](CCC(=O)O)NC1=O` [compound 2020] (Myristoyl-NL[R8]EEDRLL[S5]EEN-NH2; staple 3-10), in [5], the IC50 is over 25 µM. In the data set with SK-MEL-147 cells [6], the “LDH release, plasma membrane damage” value is “do not result in damage to plasma membrane”. Moreover, the “LDH release, plasma membrane damage” value in the data set with WM88 cells was “do not result in damage to plasma membrane”. Moreover, in the data set with trypsin [7], the share remaining at 0.25 h, 100 µM is 97%; the share remaining at 0.5 h, 100 µM is 99%; the share remaining at 1 h, 100 µM stood at 98%; the share remaining at 2 h, 100 µM is 95%. In the data set on trypsin [7], the share remaining at 3 h, 100 µM was 90%; the amount remaining at 4 h, 100 µM amounted to 92%; the fraction remaining at 6 h, 100 µM came to 93%; the fraction remaining at 8 h, 100 µM is 93%. In the data set with trypsin [7], the share remaining at 24 h, 100 µM amounted to 91% and the share remaining at 48 h, 100 µM was 89%. The “cell permeability compared to TAMRA-Alkyne control” value in the data set with SK-MEL-147 cells [8] is listed as “approximately threefold higher”.
For the molecule `CNC(=O)c1ccc(Nc2ncc(C(F)(F)F)c(NCc3nccnc3N(C)S(C)(=O)=O)n2)cc1` [defactinib], the IC50 in [5] (Homo sapiens, SK-MEL-147, n = 3, read-out: IC50, reduction of FAK-containing focal adhesions) amounted to 11.1 µM. For the same molecule, the IC50 in data set [5] (Homo sapiens, SK-MEL-147, n = 3, read-out: IC50, reduction of dual FAK-paxillin containing focal adhesions) worked out at 11.2 µM. The IC50 in data set [5] (Homo sapiens, SK-MEL-147, n = 3, read-out: IC50, reduction of paxillin-containing focal adhesions) was determined as 18.7 µM. Also, in the data set with kinases, the “number of kinases bound with more than 65% inhibition” value was at least 100. Besides, in data set [9], the “additional kinases other than FAK inhibited” value is recorded as 44 and the “kinases inhibited >50% (interactions mapped) out of 97 tested” value stood at 45. Further, in data set [9] (90 non-mutant kinases), the “selectivity score S(1)” value is 0.033, the “selectivity score S(10)” value was determined as 0.122 and the “selectivity score S(35)” value is 0.256. In [9] (%Ctrl <1, 90 non-mutant kinases), the “Number of Hits, S(1)” value is on record as 3. Also, in [9] (%Ctrl <10, 90 non-mutant kinases), the “Number of Hits, S(10)” value amounted to 11. Besides, in data set [9] (%Ctrl <35, 90 non-mutant kinases), the “Number of Hits, S(35)” value was found to be 23. In addition, the remaining binding at 1 µM in [3] amounted to 95%.
